Measurements: patent publication US9834514B2, “Antibiotic sensitivity-restoring and photosensitive agents” (New Mexico Tech Research Foundation, priority 2015, dated 2017)
≈ marks a conversion by molar mass, not a printed value. Read-outs that look alike come from different tables or passages of the source.

How the values were obtained:
S. aureus (ATCC 29213) [1] = assay: microbe, parasite or virus in culture; format: cell-based; settings: for MIC: Staphylococcus aureus
Protocol: Each mixture was incubated at 37° C. on a rotary shaking incubator for about 16 hours. MTT was then added to assess the viability of the cells (at 10% well volume). […] The cells were then streaked onto a TSA plate and incubated overnight at 37° C. These steps were repeated to reach a total of 30 exposures.

VRE = assay: MIC against VRE; format: cell-based, Enterococcus faecalis; settings: Enterococcus, TABLE 23, read-out: VRE MIC
Protocol: In a 12×75 mm borosilicate glass culture tube, 1 mL of cell suspension was added. Then, compound 7 was added to the cells, and the samples were mixed using a vortex mixer. […] The samples were incubated overnight at 37° C. on a rotary shaking incubator at 100 rpm.

[2] = MIC against MRSA isolates; format: cell-based, S. aureus; settings: Staphylococcus aureus
Protocol: The MICs of S. aureus ATCC 33591, BAA-44, BAA-1707, BAA-1717, BAA-1720, BAA-1747, BAA-1754, BAA-1761, BAA-1763, BAA-1764, and BAA-1766 were measured using a cell concentration of about 5×10^5 colony forming units (CFU)/mL. In a 96-well microtiter plate, two-fold dilutions were made of each drug (starting with 100 μM) in 100 μL of a cell suspension in trypticase soy broth (TSB). The samples were incubated overnight at 37° C. on a rotary shaking incubator set at 100 revolutions per minute (rpm) and were visually inspected for turbidity. A 20% well-volume of 3-(4,5-dimethylthiazol-2-yl)-2,5-diphenyltetrazolium bromide (MTT reagent, 5 mg/mL) was added, and the samples were incubated for about 20 minutes. The MICs were determined as the lowest concentration at which full visual inhibition was observed by the unaided eye.

S. aureus (ATCC 29213) [3] = assay: MIC against drug sensitive S. aureus; format: cell-based; settings: Staphylococcus aureus, ATCC29213; ATCC 29213; read-out: S. aureus MIC
[4] = system: A. baumannii (ATCC 15151); assay: MIC against A. baumannii; format: cell-based
Protocol: TABLE 28 details the individual MIC values of compounds 1, 7, 8, 9, 10, 11, PMB, PME, and light against A. baumannii.
The MICs of PME and compounds 8-11 were determined against A. baumannii (ATCC 15151). […] After incubating the cells with PME, a compound (5 μM) was added, and the samples were further incubated at 37° C. At specific time points, samples were taken and diluted ten-fold in media. Ten microliters of each dilution was then drip-streaked onto an agar plate and incubated overnight at 37° C. Colony counts were then performed, and the CFU/mL were calculated.

[5] = system: K. pneumoniae ATCC BAA-2341; assay: MIC of PMB and PME; format: cell-based; settings: K. pneumoniae ATCC BAA-2341 (so in the source)
Description: (§1) TABLE 25 details the MICs of PMB and PME against E. cloacae and K. pneumoniae.

E. cloacae ATCC BAA-2341 = assay: MIC of PMB and PME; format: cell-based
Description: as §1

[6] = system: Klebsiella pneumoniae (CRE, ATCC BAA-1705); assay: MIC against CRE; format: cell-based
Protocol: TABLE 27 details the individual MIC values of compounds 1, 7, 8, 9, 10, 11, PMB, PME, and light against CRE.
The MICs of PME and compounds 8-11 were determined against Klebsiella pneumoniae (CRE, ATCC BAA-1705). […] After the incubation with PME, the compounds were added at a concentration of 20 μM, and the samples were further incubated. At specific time points, the samples were taken and diluted ten-fold in media. Ten microliters of each dilution was then drip-streaked onto an agar plate and incubated overnight at 37° C. Colony counts were then performed and the CFU/mL were calculated.

P. aeruginosa = assay: MIC against P. aeruginosa; format: cell-based
Description: Only compound 1 was able to decrease the CFU/mL when used in conjunction with white light to treat P. aeruginosa.

E. coli = assay: MIC against E. coli; format: cell-based
Description: TABLE 18 details the obtained MIC values for cells treated with compound 1, light, PMB, and Polymyxin E (PME) against E. coli.

[7] = system: Klebsiella pneumoniae (CRE, ATCC BAA-1705); assay: Cell killing of CRE with compounds in presence or absence of PMB (CFU/mL); format: cell-based; settings: PMB alone
Protocol: Klebsiella pneumoniae (CRE, ATCC BAA-1705) was grown in TSB overnight at 37° C. and diluted to about 5×10^5 CFU/mL using a McFarland Latex Turbidity standard (0.5). One mL of the cell suspension was transferred to a glass culture test tube. PMB was added to the cell suspension resulting in a final concentration of 200 μg/mL of PMB. The cell suspension was incubated at 37° C. on a rotary shaking incubator at 150 rpm for 4 hours. Compounds 1, 7, 8, 9, 10, and 11 were added to the cell suspension, resulting in a concentration of 20 μM for each of the compounds. The cell suspensions containing the compounds were incubated at 37° C. on a rotary shaking incubator at 150 rpm for 4 hours. Each sample was diluted tenfold to a 10^−5 dilution. Ten 10 microliters of each dilution from each sample was dripped onto a TSA plate and allowed to streak down the plate. The agar plates were incubated at 37° C. for 18-24 hours. Colony counts were performed and CFU/mL values were calculated.
The MICs of PMB and compounds 7-11 were determined against Klebsiella pneumoniae (CRE, ATCC BAA-1705). […] After the incubation with PMB, each of the compounds was added at a concentration of 20 μM, and the samples were incubated for an additional 18 hours. A sample was taken and diluted ten-fold in media. Ten microliters of each dilution was then drip-streaked onto an agar plate and incubated overnight at 37° C. Colony counts were then performed and the concentrations of cells (CFU/mL) were calculated.

Compound: Cc1onc(-c2ccccc2)c1C(=O)N[C@@H]1C(=O)N2[C@@H]1SC(C)(C)[C@@H]2C(=O)O [Oxacillin, reference compound]
- Resistance Evolved (S. aureus (ATCC 29213) [1]): Yes
- MIC (S. aureus (ATCC 29213) [1]; ATCC29213, read-out: Final MIC Apr. 16, 2015): > 8 µM
- MIC (S. aureus (ATCC 29213) [1]; ATCC29213, read-out: Initial MIC Mar. 10, 2015): 0.25 µM (≈ 0.1 µg/mL)
- MIC (VRE): 20 to 40 µg/mL (≈ 49.8 to 99.6 µM)
- MIC ([2]; antibiotics, MRSA isolate ATCC 33591): > 100 µg/mL
- MIC ([2]; antibiotics, MRSA isolate ATCC BAA-44): 400 µg/mL (≈ 996 µM)
- MIC ([2]; antibiotics, MRSA isolate ATCC BAA-1707): < 3.1 µg/mL
- MIC ([2]; antibiotics, MRSA isolate ATCC BAA-1717): 200 µg/mL (≈ 498 µM)
- MIC ([2]; antibiotics, MRSA isolate ATCC BAA-1720): > 100 µg/mL
- MIC ([2]; antibiotics, MRSA isolate ATCC BAA-1747): 6.3 µg/mL (≈ 15.7 µM)
- MIC ([2]; antibiotics, MRSA isolate ATCC BAA-1754): 50 µg/mL (≈ 125 µM)
- MIC ([2]; antibiotics, MRSA isolate ATCC BAA-1761): 6.3 µg/mL (≈ 15.7 µM)
- MIC ([2]; antibiotics, MRSA isolate ATCC BAA-1763): 50 µg/mL (≈ 125 µM)
- MIC ([2]; antibiotics, MRSA isolate ATCC BAA-1764): 25 µg/mL (≈ 62.3 µM)
- MIC ([2]; antibiotics, MRSA isolate ATCC BAA-1766): < 6.3 µg/mL
- MIC ([2]; read-out: MRSA MIC, MRSA (ATCC BAA-44), TABLE 21): 400 µg/mL (≈ 996 µM)
- MIC (S. aureus (ATCC 29213) [3]): 0.5 µg/mL (≈ 1.25 µM)

Compound: Polymyxin E [PME, reference compound]
- A. baumannii MIC [4]: 0.5 µg/mL
- MIC [5]: 16 µg/mL
- MIC (E. cloacae ATCC BAA-2341): 16 µg/mL
- CRE MIC [6]: 4 µg/mL
- MIC (P. aeruginosa): 2 µg/mL
- E. Coli MIC (E. coli): 2 µg/mL

Compound: polymyxin B [PMB, reference compound]
- A. baumannii MIC [4]: 4 µg/mL
- PMB @ 0.2 μg/mL [7]: 1.8 × 10^6 CFU/mL
- MIC (E. cloacae ATCC BAA-2341): 4 µg/mL
- CRE MIC [6]: 4 µg/mL
- E. Coli MIC (E. coli): 2 µg/mL
